The record followed here is patent US20100286183A1, “SPIROHYDANTOIN COMPOUNDS AND METHODS FOR THE MODULATION OF CHEMOKINE RECEPTOR ACTIVITY” (priority 2005, published 2010).

Structures can show the parent of a compound that is named as a salt.

For one test, the system named is HIV-1Ba-L. The experiment in a line: HIV-1 Replication in PM1 Cell Culture Assay. The note with it: Human immunodeficiency virus 1, 144 h; PM1 cell line infected with HIV-1Ba-L, 6 days, reverse transcriptase assay of supernatant; read-out: IC50 μM HIV-1 PM1. The format is cell-based. From the text: C:HIV-1 Replication in PM1 Cell Culture Assay
Evaluation of the in vitro anti-HIV-1Ba-L activity in PM1 cell line: PM1 cell line which is a continuous CD4+ T-cell clone originally derived from a neoplastic T-cell line is used. PM1 is characterized by a unique susceptibility to a wide range of HIV-1 isolates, including primary and biologically pure macrophage-tropic isolates. Drugs are serially diluted (9 concentrations in duplicates) and added to wells of a flat bottom 96-well plate. PM1 cells are infected with HIV-1Ba-L at a multiplicity of infection of 0.5 for a period of 3 hours. Unbound viruses are removed by washing the cells two times through centrifugation followed by seeding the cells into a 96-well plate in the presence of the serially diluted test compounds with final concentrations ranging from 0.00256 to 5000 ηM. Thereafter, plates were incubated for a period of 6 days at 37° C. in a CO2 incubator. Thereafter, culture supernatants are collected at day 6 and stored at −80° C. for viral quantification. The amount of virus present in cell culture supernatants is quantified using a reverse transcriptase assay. The concentration causing 50% inhibition of viral replication (IC50) is calculated using Graph Pad Prism software.
Turning to `CC(C)(C)OC(=O)N1C[C@H](CN2CCC3(CC2)NC(=O)N(Cc2ccc(Br)cc2)C3=O)[C@@H](c2ccccc2)C1` [Compound 1, (3S,4S)-3-[3-(4-Bromo-benzyl)-2,4-dioxo-1,3,8-triaza-spiro[4.5]dec-8-ylmethyl]-4-phenyl-pyrrolidine-1-carboxylic acid tert-butyl ester], the IC50 is < 1 µM. On the same count and under the same terms, then `CC(C)(C)OC(=O)N1C[C@H](CN2CCC3(CC2)NC(=O)N(Cc2ccc(S(C)(=O)=O)cc2)C3=O)[C@@H](c2ccccc2)C1` [Compound 3, (3S,4S)-3-[3-(4-Methanesulfonyl-benzyl)-2,4-dioxo-1,3,8-triaza-spiro[4.5]dec-8-ylmethyl]-4-phenyl-pyrrolidine-1-carboxylic acid tert-butyl ester], with < 1 µM. Same read-out and setting: then `COc1ccc(CN2C(=O)NC3(CCN(C[C@H]4CN(C(=O)OC(C)(C)C)C[C@@H]4c4ccccc4)CC3)C2=O)cc1` [Compound 2, (3S,4S)-3-[3-(4-Methoxy-benzyl)-2,4-dioxo-1,3,8-triaza-spiro[4.5]dec-8-ylmethyl]-4-phenyl-pyrrolidine-1-carboxylic acid tert-butyl ester], with < 1 µM.

Staying with this test, now noted: Human immunodeficiency virus 1, PM1, 144 h, read-out: IC50 μM HIV-1 PM1.
Take `CS(=O)(=O)c1ccc(CN2C(=O)NC3(CCN(C[C@H]4CN(C(=O)C5CCC(F)(F)CC5)C[C@@H]4c4ccccc4)CC3)C2=O)cc1` [Compound 19, 8-[(3S,4S)-1-(4,4-Difluoro-cyclohexanecarbonyl)-4-phenyl-pyrrolidin-3-ylmethyl]-3-(4-methanesulfonyl-benzyl)-1,3,8-triaza-spiro[4.5]decane-2,4-dione hydrochloride]: the IC50 is < 1 µM. As to `CC1(C(=O)N2C[C@H](CN3CCC4(CC3)NC(=O)N(Cc3ccc(S(C)(=O)=O)cc3)C4=O)[C@@H](c3ccccc3)C2)CC1` [Compound 16, 3-(4-Methanesulfonyl-benzyl)-8-[(3S,4S)-1-(1-methyl-cyclopropanecarbonyl)-4-phenyl-pyrrolidin-3-ylmethyl]-1,3,8-triaza-spiro[4.5]decane-2,4-dione hydrochloride], the concentration for half-maximal inhibition (IC50) was < 1 µM. The same measure, in the same setting: the result for `CS(=O)(=O)c1ccc(CN2C(=O)NC3(CCN(C[C@H]4CN(C(=O)c5ccccc5F)C[C@@H]4c4ccccc4)CC3)C2=O)cc1` [Compound 20, 8-[(3S,4S)-1-(2-Fluoro-benzoyl)-4-phenyl-pyrrolidin-3-ylmethyl]-3-(4-methanesulfonyl-benzyl)-1,3,8-triaza-spiro[4.5]decane-2,4-dione hydrochloride] reads < 1 µM; that for `CCC(=O)N1C[C@H](CN2CCC3(CC2)NC(=O)N(Cc2ccc(S(C)(=O)=O)cc2)C3=O)[C@@H](c2ccccc2)C1` [Compound 15, 3-(4-Methanesulfonyl-benzyl)-8-((3S,4S)-4-phenyl-1-propionyl-pyrrolidin-3-ylmethyl)-1,3,8-triaza-spiro[4.5]decane-2,4-dione hydrochloride], < 1 µM; that for `CC(C)(C)CC(=O)N1C[C@H](CN2CCC3(CC2)NC(=O)N(Cc2ccc(S(C)(=O)=O)cc2)C3=O)[C@@H](c2ccccc2)C1` [Compound 23, 8-[(3S,4S)-1-(3,3-Dimethyl-butyryl)-4-phenyl-pyrrolidin-3-ylmethyl]-3-(4-methanesulfonyl-benzyl)-1,3,8-triaza-spiro[4.5]decane-2,4-dione hydrochloride], < 1 µM. The same measure, in the same setting: the result for `CN(C)S(=O)(=O)c1ccc(CN2C(=O)NC3(CCN(C[C@H]4CN(C(=O)C5CCC(F)(F)CC5)C[C@@H]4c4ccccc4)CC3)C2=O)cc1` [Compound 22, 4-{8-[(3S,4S)-1-(4,4-Difluoro-cyclohexanecarbonyl)-4-phenyl-pyrrolidin-3-ylmethyl]-2,4-dioxo-1,3,8-triaza-spiro[4.5]dec-3-ylmethyl}-N,N-dimethyl-benzenesulfonamide hydrochloride] reads < 1 µM. The same measure, in the same setting: the result for `CS(=O)(=O)c1ccc(CN2C(=O)NC3(CCN(C[C@H]4CN(C(=O)C5CCCC5)C[C@@H]4c4ccccc4)CC3)C2=O)cc1` [Compound 18, 8-((3S,4S)-1-Cyclopentanecarbonyl-4-phenyl-pyrrolidin-3-ylmethyl)-3-(4-methanesulfonyl-benzyl)-1,3,8-triaza-spiro[4.5]decane-2,4-dione hydrochloride] reads < 1 µM.

Regarding `CS(=O)(=O)c1ccc(CN2C(=O)NC3(CCN(C[C@H]4CN(C(=O)CC5CC5)C[C@@H]4c4ccccc4)CC3)C2=O)cc1` [Compound 17, 8-[(3S,4S)-1-(2-Cyclopropyl-acetyl)-4-phenyl-pyrrolidin-3-ylmethyl]-3-(4-methanesulfonyl-benzyl)-1,3,8-triaza-spiro[4.5]decane-2,4-dione hydrochloride], the half-maximal inhibitory concentration (IC50) is < 1 µM. The same measure, in the same setting: then `CCCN1C(=O)N(CC)C2(CCN(C[C@H]3CN(C(=O)CC(C)(C)C)C[C@@H]3c3ccccc3)CC2)C1=O` [Compound 24, 8-[(3S,4S)-1-(3,3-Dimethyl-butyryl)-4-phenyl-pyrrolidin-3-ylmethyl]-1-ethyl-3-propyl-1,3,8-triaza-spiro[4.5]decane-2,4-dione hydrochloride], with < 1 µM; and `CS(=O)(=O)c1ccc(CN2C(=O)NC3(CCN(C[C@H]4CN(C(=O)c5ccccc5Cl)C[C@@H]4c4ccccc4)CC3)C2=O)cc1` [Compound 21, 8-[(3S,4S)-1-(2-Chloro-benzoyl)-4-phenyl-pyrrolidin-3-ylmethyl]-3-(4-methanesulfonyl-benzyl)-1,3,8-triaza-spiro[4.5]decane-2,4-dione hydrochloride], with < 1 µM.

The term IC50 denotes the concentration needed to halve the response being measured.
